Legend:
[1] = test system: Cx43/α-tubulin interaction; experiment: STORM localization, cross-pair correlation of Cx43/α-tubulin interaction in VTC-037 GSCs; format: cell-based, human; conditions: 50 μM, 24 h, n = 10
Protocol: Cells were washed once with warm PBS before fixing in 4% paraformaldehyde for 20 min at room temperature or ice-cold methanol for 5 min on ice, washed twice, and held in PBS at 4°C until immunostaining was conducted. Cells were permeabilized and blocked in 5% normal goat or donkey serum (Fisher Scientific) and 0.1% Triton X-100 in PBS for 2 h at room temperature. Primary antibodies rabbit anti-Cx43 (MilliporeSigma; C6219), mouse anti-pan Cadherin (MilliporeSigma; C1821), or mouse anti-α-tubulin (MilliporeSigma; T6199) were diluted in blocking buffer and labeling was performed overnight at 4 °C. […]
Stochastic optical reconstruction microscopy (STORM) acquisition was conducted with a Vutara 350 microscope (Bruker). […] To quantify the spatial relationship between target proteins localized by STORM, we utilized cross-pair correlation analysis. […]

[2] = test system: α-tubulin; experiment: Co-immunoprecipitation with α-tubulin antibody: peptide interaction with α-tubulin; format: binding, human; conditions: VTC-037 GSCs, 50 μM, 24 h, cross-linked (DTBP); compared to antennapedia alone or JM2-scrambled; NeutrAvidin-HRP detection
Protocol: Prior to lysis, cross-linking was completed by incubating cells in DTBP (dimethyl 3,3’-dithiobispropionimidate; 2 mM in PBS) for 30 min at 37 °C followed by a glycine quench (100 mM glycine in PBS) for 15 min at room temperature. Cross-linked samples were lysed in RIPA buffer supplemented with Halt^TM Protease and Phosphatase Inhibitor Cocktail as described above, but without sonication. Co-immunoprecipitation (co-IP) assays were also performed without cross-linking; non-cross-linked samples were lysed using a co-IP lysis buffer (0.5% Triton X-100, 50 mM Tris HCl, 150 mM NaCl, 1 mM EDTA, 1 mM EGTA, 1 mM DTT, 0.1 mM Na3VO4, and 1 mM NaF) supplemented with Halt^TM Protease and Phosphatase Inhibitor Cocktail, without sonication. Protein concentration was quantified using the DC protein assay and a standard curve obtained with increasing concentrations of BSA, and 500 μg of total protein was used per reaction for co-IP. Inputs were removed prior to co-IP and denatured in Bolt LDS sample buffer as described above. Remaining protein lysates were incubated with Protein G Sepharose^TM 4 Fast Flow beads (GE Healthcare) for pre-clearance for 30 min at 4 °C. Samples were incubated with 2 μg of mouse anti-α-tubulin (MilliporeSigma, T6199) for cross-linked samples or mouse anti-Cx43 antibody (EMD Millipore; MAB3067) for non-cross-linked samples for 90 min at 4 °C. […]

[3] = test system: VTC-037 GSCs; experiment: Peptide uptake by confocal Z-stack with WGA, VTC-037 GSCs; format: in vitro ADME, human; conditions: 50 μM, 24 h, WGA membrane label

With VFFKGVKDRVKGRSD [JM2] the “Cx43-microtubule interaction (cross-pair correlation)” value [1] was “impaired this interaction in situ”, the “Interaction of peptide with α-tubulin (co-IP)” value [2] was “robustly interacted with α-tubulin” and the “Peptide enrichment within cells (Z-stack 3D projection)” value [3] was “enrichment of JM2 (red) within cells”.

From paper PMC12084297, “Cytoplasmic connexin43-microtubule interactions promote glioblastoma stem-like cell maintenance and tumorigenicity” (Cell Death & Disease, 2025)
